The assay has as its system inflammatory pain. In words: Randall-Selitto test in rats (carrageenan-induced acute inflammation, mechanical nociceptive threshold). The assay is classed as in vivo. The following applies: rat; for time point of peak effect: substance applied alone, A i.v., paracetamol i.p. The procedure:
The weight ratios of the components (a) and (b) that will lead to a supra-additive effect (synergistic effect) of the inventive pharmaceutical composition may be determined via the test of Randall and Selitto as described in Arch. Int. Pharmacodyn., 1957, 111: 409 to 419, which is a model for inflammatory pain. The respective part of the literature is hereby incorporated by reference and forms part of the present disclosure.
Acute inflammation is induced by an intraplantar injection of 0.1 ml of a carrageenan solution (0.5% in distilled water) into one hind paw. The mechanical nociceptive threshold is measured 4 hours after carrageenan injection using an Algesiometer (Ugo Basile, Italy). The device generates a mechanical force with a linear increase over time. The force is applied to the dorsal surface of the inflamed rat hind paw via a cone-shaped stylus with a rounded tip (2 mm tip diameter). The nociceptive threshold is defined as the force (in grams) at which the rat vocalises (cut-off force 250 g). […] The antinociceptive and antihyperalgesic activity of the tested substance is expressed as percentages of the maximal possible effect (% MPE). The group size is n=10.
The interactions studies presented herein were performed using equieffective doses of the two components, calculated from the ratio of the respective ED50 values of the components if administered alone.
Thus, the time point of ED50 calculation of the combination corresponds to the timepoint of the peak effect of the respective compound.

Counter-ions that a name gives are not always drawn.

As a reminder, the ED50 is the dose that gives a 50% effect, or the effect in half of the subjects. With `COc1cccc([C@@]2(O)C[C@H](O)CC[C@@H]2CN(C)C)c1` (racemic) [A, (1RS,3RS,6RS)-6-dimethylaminomethyl-1-(3-methoxy-phenyl)-cyclohexane-1,3-diol hydrochloride], the “time point of peak effect” value is recorded as 15 min. Besides, for the setting “iv, 0.25 h, i.v., 15 min p. appl. (peak effect), % MPE, n=10, read-out: ED50 of A applied alone”, the ED50 turned out to be 15.8 mg/kg.

Take `CC(=O)Nc1ccc(O)cc1` [Paracetamol]: the “time point of peak effect” value came to 120 min.

Source of the values: patent US20100069501A1, “Pharmaceutical Composition Comprising 6-Dimethylaminomethyl-1-(3-methoxy-phenyl)-cyclohexane-1,3-diol and Paracetamol” (GRUENENTHAL GmbH, priority 2008, published 2010).
